Test results taken from patent publication US6166067A, “Inhibitors of cholesterol-biosynthesis for reducing the cholesterol content of poultry eggs” (priority 1998, dated 2000).
Structures can show the parent of a compound that is named as a salt. Where two headings read alike, the source gives them in different places.

Tests used:
[1] = cited from earlier work
[2] = system: cholesterol content of poultry eggs; conditions: cited from earlier work; for reduction of cholesterol content of poultry eggs: literature (Elkin et al.)
[3] = system: cholesterol synthesis in macrophages; conditions: Fuhrmann et al. 1997; cited from earlier work
[4] = system: triglycerides in the yolk; assay: Triglycerides in egg yolk, laying-hen feeding trial (Example 1); assay type: in vivo, laying hens (Lohmann Selected Leghorn); conditions: 4 weeks
Procedure: (§1) At the start of the trial, the laying hens (Lohmann Selected Leghorn) had been laying for 28 weeks. One treatment group consisted of 10 hens. The birds were initially fed with the various active ingredients for 4 weeks. The eggs were then collected for the analyses. 3 independent yolk pools were formed from 6 eggs in each case and were deep-frozen until analyzed. Total cholesterol and triglycerides in the yolk were analyzed by enzymatic methods. The analyses were carried out as stated in the handbook "Veterinarmedizinische Laboruntersuchungen fur die Diagnose und Verlaufskontrolle" (1985), 3rd edition, published by Boehringer Mannheim GmbH, Mannheim.
(§2) The triglycerides are determined enzymatically via their glycerol content. The triglycerides are cleaved enzymatically by the enzymes lipase and esterase. The resulting glycerol is phosphorylated by ATP to glycerol 3-phosphate in the reaction catalyzed by glycerol kinase GK.
glycerol+ATP.revreaction.glycerol 3-phosphate+ADP
The resulting ADP is converted by pyruvate kinase (PK) with phosphoenolpyruvate (PEP) back into ATP, with formation of pyruvate. [drawing 6] Pyruvate is hydrogenated to lactate by lactate dehydrogenase (LDH) with NADH, the NADH being oxidized to NAD. [drawing 7]
The amount of NADH consumed during the reaction is equivalent to the amount of glycerol. NADH is the measured variable and can easily be determined from its absorption at Hg 366 nm, Hg 334 nm or 340 nm.
(§3) The data were subjected to analysis of variance, and differences between means were ranged by the Duncan test.

cholesterol = conditions: high doses; cited from earlier work
[5] = system: total cholesterol in the yolk; assay: Total cholesterol in egg yolk, laying-hen feeding trial (Example 1); assay type: in vivo, laying hens (Lohmann Selected Leghorn); conditions: 4 weeks
Procedure: as §1
(§4) For the cholesterol determination, the cholesterol esters were cleaved to cholesterol and fatty acid by the action of cholesterol esterase. Free cholesterol is converted by atmospheric oxygen with the involvement of cholesterol oxidase into Δ^4 -cholestenone and hydrogen peroxide. The resulting hydrogen peroxide forms with 4-aminophenazone and phenol through the catalytic action of peroxidase a red dye whose intensity of color is directly proportional to the cholesterol concentration and can be measured at 500 to 550 nm.
as §3

[6] = Tocopherol and tocotrienol contents in yolk by HPLC (Example 1); assay type: in vivo, laying hens (Lohmann Selected Leghorn)
Procedure: as §1
(§5) Tocopherols and tocotrienols in the yolk pools were determined by HPLC. To do this, the sample is hydrolyzed in aqueous alcoholic medium and extracted several times with diethyl ether. Quantification takes place by comparison with external standards.
Stationary phase: Spherisorb CN 5 μm, 250×4 mm
Mobile phase: n-Hexane with 0.25% i-propanol
Fluorescence detection: 292 nm (extinction) 326 nm (emission)

HMG-CoA reductase = conditions: broilers, supplementation; cited from earlier work
plasma cholesterol [7] = conditions: broilers, when cholesterol was fed at the same time; cited from earlier work
[8] = system: β-hydroxy-β-methyl-glutaryl (HMG)-CoA reductase; conditions: cited from earlier work
cholesterol in yolk = assay: Cholesterol in egg yolk, laying-hen feeding trial (Example 2); assay type: in vivo, laying hens; conditions: for Cholesterol, yolk: control 10.23
Description: as §4
(§6) Another feeding experiment was carried out in analogy to Example 1. In this case the intention was to test not only α- and δ-tocotrienol but also a tocotrienol precursor (4-oxo-γ-tocotrienol) and other terpenoids such as farnesyl acetate, perillyl alcohol, linalool and β-ionone, in laying hens.
(§7) The trial protocol corresponds to that in Example 1 but with the following amendments:
(§8) The number of birds comprised 8 hens per treatment.
(§9) Triglyceride and cholesterol were determined in 4 independent yolk pools(each from 6 eggs) and plasma.

plasma cholesterol [9] = assay: Cholesterol in plasma, laying-hen feeding trial (Example 2); assay type: in vivo, laying hens; conditions: 500 mg/kg feed; control 125.3
Description: as §4, §6, §7, §8
(§10) 4 birds in each case from the control and the high dosages were sacrificed at the end of the trial. After taking blood to obtain plasma, the birds were completely exsanguinated. The liver was then removed and deep frozen until analyzed.
as §9

[10] = parameters: species or system laying hens; conditions: in vivo
Procedure: as §5, §6, §7, §10
(§11) In addition, α-, δ- and 4-oxo-γ-tocotrienol in yolk and liver (treatments 1 to 7) were determined.

plasma triglyceride = assay: Triglycerides in plasma, laying-hen feeding trial (Example 2); assay type: in vivo, laying hens; conditions: 500 mg/kg feed; control 2496
Procedure: as §2, §6, §7, §8, §10, §9

triglycerides in yolk = assay: Triglycerides in egg yolk, laying-hen feeding trial (Example 2); assay type: in vivo, laying hens; conditions: control 170.4
Procedure: as §2, §6, §7, §8, §9

[11] = parameters: species or system laying hens; conditions: in vivo; remark: listed apart in the source
Procedure: as §5, §6, §7, §8, §11

[12] = 1000 mg/kg feed, after hydrolysis
[13] = 500 mg/kg feed, significant, complete yolk
[14] = 20 mg/kg feed, after hydrolysis
[15] = 500 mg/kg feed, after hydrolysis

Which results are given for `CC[C@H](C)C(=O)O[C@H]1C[C@@H](C)C=C2C=C[C@H](C)[C@H](CC[C@@H]3C[C@@H](O)CC(=O)O3)[C@H]21` [lovastatin]?
influence on poultry performance parameters, such as the egg output ([1]; in vivo): without influencing; reduction of cholesterol content of poultry eggs [2]: 15%

What does the source list for `CC(C)c1c(Br)c(Br)c(-c2ccc(F)cc2)n1CC[C@@H](O)C[C@@H](O)CC(=O)O` (relative stereo) [(±)-(R*,R*)-3,4-dibromo-β,δ-dihydroxy-2-(4-fluorophenyl)-5-(1-methylethyl)-1H-pyrrole-1-heptanoic acid, Na salt]?
influence on poultry performance parameters, such as the egg output ([1]; literature (Elkin et al.)): without influencing; reduction of cholesterol content of poultry eggs [2]: 30%

For `CC1=C(/C=C/C(C)=C/C=C/C(C)=C/C=C/C=C(C)/C=C/C=C(C)/C=C/C2=C(C)CCCC2(C)C)C(C)(C)CCC1` [β-carotene], which “inhibition of cholesterol synthesis in macrophages” value [3] is on record?
Its value is “inhibit cholesterol synthesis in macrophages”.

Which results are given for `O=C(O)c1cccnc1` [nicotinic acid, reference compound]?
triglyceride content in the yolk ([4]; both dosages (1500 and 15000 mg/kg feed)): significantly increased; cholesterol-lowering effect (cholesterol): cholesterol-lowering effect

Which results are given for `CC(=O)Oc1c(C)c(C)c2c(c1C)CCC(C)(CCCC(C)CCCC(C)CCCC(C)C)O2` (racemic) [vitamin E (all-rac-α-tocopheryl acetate), all-rac-α-tocopheryl acetate, reference compound]?
effect on triglycerides in the yolk ([4]; 1000 mg/kg feed): no effect; effect on cholesterol in the yolk ([5]; 1000 mg/kg feed): no effect; α-Tocopherol content in yolk [6, 12]: 23064 μg/yolk; α-Tocotrienol content in yolk [6, 12]: 227 μg/yolk; γ-Tocopherol content in yolk [6, 12]: 188 μg/yolk; δ-Tocopherol content in yolk [6, 12]: 36 μg/yolk; δ-Tocotrienol content in yolk [6, 12]: 0 μg/yolk; α-Tocopherol content in yolk ([6]; 1000 mg/kg feed, control 0.48 mg): 23 mg; effect on γ-tocopherol in the yolk ([6]; high α-tocopherol dosage (1000 mg/kg feed)): reduction in γ-tocopherol in the yolk; effect on HMG-CoA reductase (HMG-CoA reductase): stimulation of HMG-CoA reductase; change in plasma cholesterol (plasma cholesterol [7]): increase in plasma cholesterol

With `CC(=O)Oc1cc2c(c(C)c1C)OC(C)(CC/C=C(\C)CC/C=C(\C)CCC=C(C)C)CC2` (racemic) [γ-tocotrienol acetate] as the molecule, how does the “reduction in triglycerides in the yolk” value [4, 13] read?
Its value is 15%.

And the “effect on triglycerides in the yolk” value ([4]; low dosage, 20 mg/kg feed)?
The value was “no effect”.

And the “reduction in cholesterol in the yolk” value [5, 13]?
The value was 15%.

What about the “effect on cholesterol in the yolk” value ([5]; low dosage, 20 mg/kg feed) of the same molecule?
Its value is “no effect”.

What about the “α-Tocopherol content in yolk” value [6, 14] of the same molecule?
The value was 545 μg/yolk.

And the “α-Tocotrienol content in yolk” value [6, 14]?
Its value is 0 μg/yolk.

And the “γ-Tocopherol content in yolk” value [6, 14]?
Its value is 393 μg/yolk.

What about the “δ-Tocopherol content in yolk” value [6, 14] of the same molecule?
The value was 57 μg/yolk.

What about the “δ-Tocotrienol content in yolk” value [6, 14] of the same molecule?
The value was 0 μg/yolk.

What about the “α-Tocopherol content in yolk” value [6, 15] of the same molecule?
The value was 433 μg/yolk.

What about the “α-Tocotrienol content in yolk” value [6, 15] of the same molecule?
Its value is 0 μg/yolk.

What about the “γ-Tocopherol content in yolk” value [6, 15] of the same molecule?
The value was 425 μg/yolk.

And the “δ-Tocopherol content in yolk” value [6, 15]?
The value was 59 μg/yolk.

And the “δ-Tocotrienol content in yolk” value [6, 15]?
Its value is 366 μg/yolk.

For nicotinate [reference compound], which “effect of ester form by comparison with the alcohol and acetate forms” value ([8]; U.S. Pat. No. 5,217,992) is on record?
Its value is “most pronounced”.

Which “accumulation of γ-tocotrienol in the yolk” value ([6]; fed as γ-tocotrienol acetate) does the source give for `CC(C)=CCC/C(C)=C/CC/C(C)=C/CCC1(C)CCc2cc(O)c(C)c(C)c2O1` (stereo not drawn) [γ-tocotrienol] here?
The value was “scarcely any accumulation”.

And the “γ-tocotrienol detected in the yolk” value ([6]; high dosage (500 mg/kg feed, as acetate))?
The value was 366 µg.

And the “relative effect versus α-tocotrienol” value ([8]; HepG2 cell cultures)?
Its value is “about 30 times”.

What does the source list for `CC(C)=CCC/C(C)=C/CC/C(C)=C/CC[C@]1(C)CCc2c(C)c(O)c(C)c(C)c2O1` [α-Tocotrienol, α-tocotrienol]?
Cholesterol, yolk (cholesterol in yolk; 50 mg/kg feed): 9.85 mg/g; Cholesterol, yolk (cholesterol in yolk; 500 mg/kg feed): 9.45 mg/g; trend in yolk cholesterol content (cholesterol in yolk; Example 2): trend toward reduced cholesterol contents in yolk; Cholesterol, plasma (plasma cholesterol [9]): 130.3 mg/dL; detectability in the birds' livers [10]: detectable in the birds' livers; Triglycerides, plasma (plasma triglyceride): 4195 mg/dL; Triglycerides, yolk (triglycerides in yolk; 50 mg/kg feed): 189.9 mg/g; Triglycerides, yolk (triglycerides in yolk; 500 mg/kg feed): 195.1 mg/g; effect on β-tocopherol [11]: effect on β-tocopherol only by the α-tocotrienol treatments; increase for tocotrienols in yolk [11]: most pronounced increase; effect on the cholesterol content in eggs ([2]; literature (Huggett et al.; Beyer and Jensen)): no effect

For `CC(C)=CCC/C(C)=C/C=C/C(C)=C/C=C/C(C)=C/C=C/C=C(C)/C=C/C=C(C)/C=C/C=C(\C)CCC=C(C)C` [lycopene], which “inhibition of cholesterol synthesis in macrophages” value [3] is on record?
The value was “inhibit cholesterol synthesis in macrophages”.
